Data taken from patent US20160160213A1, “METHODS OF TREATING CANCER AND PREVENTING CANCER DRUG RESISTANCE” (Genentech, Inc., priority 2013, published 2016).
“Also recorded” adds a separate entry of the source.

Assays:
H3K27me3 in PC9 DTPs = test: Histone H3K27me3 Western blot in PC9 DTPs treated with erlotinib; format: cell-based, human; details: GSK126 0.1, 0.5, 2.5 μM, EPZ-6438 0.05, 0.1, 0.5, 1, 1.5 μM, erlotinib 1 μM
Description: FIG. 20A, FIG. 20B, FIG. 20C and FIG. 20D | EZH2 inhibitors (GSK126) disrupt the drug-tolerant state. (A) Increase in histone H3K27me^3 in PC9 DTPs treated with erlotinib is inhibited by EZH2 small molecule inhibitor (GSK126) at 0.1, 0.5, and 2.5 μM as shown by Western blot. (B) nuc-red PC9 cells were treated with DMSO/erlotinib or GSK126/erlotinib at 0.1, 0.5, or 2.5 μM (dark grey bar) or without erlotinib (DMSO/Media or GSK126/Media) (light grey bar) and analyzed IncuCyte™ at day 9 and 3, respectively. (C) nuc-red PC9 cells were treated with DMSO/erlotinib or GSK126/erlotinib at 2.5 μM for 9 days and imaged. (D) nuc-red PC9 cells were treated with DMSO/erlotinib or GSK126/erlotinib at 2.5 μM for 30 days and stained with Giemsa. Erlotinib concentration 1 μM for FIG. 20A, FIG. 20B, FIG. 20C and FIG. 20D.
(D) nuc-red PC9 cells were treated with DMSO/erlotinib or […] at 0.05, 0.1, or 1.0 μM) for 30 days and stained with Giemsa. Erlotinib concentration 1 μM for FIG. 22A, FIG. 22B, FIG. 22C and FIG. 22D.
(§1) Cell lysates were prepared in Laemmli sample buffer and analyzed by immunoblotting as described previously. Cell lysates were analyzed using commercial antibodies against modifications on H3 (Active Motif and Cell Signaling Technologies).

H3K27me3 in EVSAT DTPs = test: Histone H3K27me3 Western blot in EVSAT DTPs treated with GDC-0908; format: cell-based; details: GSK126 0.1, 0.5, 2.5 μM, EPZ-6438 0.05, 0.1, 0.5 μM, GDC-0908 2 μM
Description: GDC-0908 concentration 2 μM for FIG. 21A and FIG. 21B.
as §1

PC9 DTP [1] = test: EZH2 inhibitors on PC9 DTP cell growth with erlotinib (IncuCyte, Giemsa); format: cell-based, human; details: erlotinib 1 μM; GSK126 0.1-2.5 μM; EPZ-6438 0.05-1.5 μM; day 9 and 30 days
Description: (A) Effect of siRNA knockdown of EZH2 on PC9 parental (light grey bars: media conditions) or DTP (dark grey: erlotinib condition) cell number using 8 different specific siRNAs (Dharmacon siGenome (×4) and On-Target Plus (OTP)(×4)) per gene. […] (B) Effect of GSK126 was tested at a concentration 1 μM.

EVSAT DTP = test: EZH2 inhibitors on EVSAT DTP cell growth with PI3K inhibitor (IncuCyte); format: cell-based; details: GDC-0908 2 μM; GSK126 0.1, 0.5, 2.5 μM; EPZ-6438 0.05, 0.1, 0.5 μM
PC9 DTP [2] = test: HDAC biased inhibitors on PC9 DTP with erlotinib, 30 days; format: cell-based, human; details: G946 50 nM, G877 5 μM, erlotinib 1 μM
Description: FIG. 17A, FIG. 17B and FIG. 17C | HDAC (1), 2 and 3 are involved in the establishment of drug tolerance. siRNA against HDAC2 and 3 as well as inhibitors that are HDAC1/2 or 3 biased disrupt the drug-tolerant state. (A-B) Effect of siRNA knockdown of essential components of HDAC2 and HDAC3 on PC9 parental (light grey bars: media conditions) or DTP (dark grey: erlotinib condition) cell number using 4 different specific siRNAs per gene. Data are presented along with the data for the non-targeting (NTC) and siTOX controls in similar treatment conditions. (C) Effect of (C1) G946, HDAC1/2 biased inhibitor, and (C2) G877, HDAC3 biased inhibitor. G946 and G877 were tested at concentrations 50 nM and 5 μM, respectively. PC9 cells were treated with (DTP) (DMSO/erlotinib or HDAC inhibitor/erlotinib) (C1 and C2) for 30 days or without erlotinib (parental) (DMSO/Media or HDAC inhibitor/Media) (data not shown). Erlotinib concentration 1 μM.
To further investigate the role of HDACs in the establishment of drug tolerance, siRNA against HDAC2 and 3 as well as inhibitors that are HDAC1/2 or 3 biased were tested for their ability to disrupt the drug-tolerant state.

EZH2 = EZH2 (Homo sapiens, UniProt Q15910); details: read-out: EZH2 Ki^app; cited from earlier work
Sequence of EZH2 (Q15910 whole entry): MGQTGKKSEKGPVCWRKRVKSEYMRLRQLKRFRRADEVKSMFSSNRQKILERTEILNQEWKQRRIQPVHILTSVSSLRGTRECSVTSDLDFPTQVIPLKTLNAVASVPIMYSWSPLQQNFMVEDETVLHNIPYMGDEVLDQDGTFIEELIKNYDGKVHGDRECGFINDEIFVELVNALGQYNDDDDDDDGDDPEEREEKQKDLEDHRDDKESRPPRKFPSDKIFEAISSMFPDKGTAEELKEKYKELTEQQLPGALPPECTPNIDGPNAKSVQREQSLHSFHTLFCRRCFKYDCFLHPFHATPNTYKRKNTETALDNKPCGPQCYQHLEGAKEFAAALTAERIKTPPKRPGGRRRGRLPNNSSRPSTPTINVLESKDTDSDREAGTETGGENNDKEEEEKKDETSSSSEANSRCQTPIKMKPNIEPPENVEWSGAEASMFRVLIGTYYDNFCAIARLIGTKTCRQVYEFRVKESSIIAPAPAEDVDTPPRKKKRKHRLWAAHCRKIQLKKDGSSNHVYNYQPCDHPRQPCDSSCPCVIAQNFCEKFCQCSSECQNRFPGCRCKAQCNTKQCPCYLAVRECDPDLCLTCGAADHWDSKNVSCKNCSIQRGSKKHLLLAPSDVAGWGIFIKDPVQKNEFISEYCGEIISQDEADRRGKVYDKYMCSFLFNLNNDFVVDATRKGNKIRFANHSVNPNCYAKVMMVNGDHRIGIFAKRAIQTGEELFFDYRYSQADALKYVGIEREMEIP
Sequence of EZH2 (O75530 whole entry partner): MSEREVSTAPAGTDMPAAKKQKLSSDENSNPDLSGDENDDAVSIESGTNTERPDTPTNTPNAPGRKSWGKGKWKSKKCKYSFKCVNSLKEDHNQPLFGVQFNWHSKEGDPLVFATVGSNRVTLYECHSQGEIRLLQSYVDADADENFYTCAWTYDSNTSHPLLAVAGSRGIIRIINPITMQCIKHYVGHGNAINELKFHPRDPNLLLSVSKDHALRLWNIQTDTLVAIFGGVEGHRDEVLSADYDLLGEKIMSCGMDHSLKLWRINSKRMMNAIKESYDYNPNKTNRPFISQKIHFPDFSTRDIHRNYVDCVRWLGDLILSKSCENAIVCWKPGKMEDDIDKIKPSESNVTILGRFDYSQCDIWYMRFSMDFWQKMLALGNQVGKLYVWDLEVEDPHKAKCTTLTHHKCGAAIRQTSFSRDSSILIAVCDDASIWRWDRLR
Sequence of EZH2 (Q15022 whole entry partner): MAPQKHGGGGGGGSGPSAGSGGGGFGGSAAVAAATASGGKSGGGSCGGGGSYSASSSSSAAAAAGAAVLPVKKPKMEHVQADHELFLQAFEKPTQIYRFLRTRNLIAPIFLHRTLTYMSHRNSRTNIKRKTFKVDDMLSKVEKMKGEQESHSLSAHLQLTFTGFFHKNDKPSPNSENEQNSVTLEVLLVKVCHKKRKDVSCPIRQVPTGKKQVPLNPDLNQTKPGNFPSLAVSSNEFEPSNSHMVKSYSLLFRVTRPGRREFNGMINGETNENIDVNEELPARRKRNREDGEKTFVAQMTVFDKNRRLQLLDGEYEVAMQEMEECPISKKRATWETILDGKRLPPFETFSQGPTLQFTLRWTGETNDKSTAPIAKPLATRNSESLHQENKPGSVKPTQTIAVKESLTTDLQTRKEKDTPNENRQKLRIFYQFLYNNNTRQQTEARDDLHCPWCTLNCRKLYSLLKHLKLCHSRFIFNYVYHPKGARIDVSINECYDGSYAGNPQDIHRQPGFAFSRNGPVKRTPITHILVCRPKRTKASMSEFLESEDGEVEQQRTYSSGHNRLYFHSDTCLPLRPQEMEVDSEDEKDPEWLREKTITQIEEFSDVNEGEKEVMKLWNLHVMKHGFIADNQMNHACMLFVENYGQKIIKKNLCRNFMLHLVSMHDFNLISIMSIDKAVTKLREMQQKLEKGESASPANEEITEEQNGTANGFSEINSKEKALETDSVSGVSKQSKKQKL
Sequence of EZH2 (Q09028 whole entry partner): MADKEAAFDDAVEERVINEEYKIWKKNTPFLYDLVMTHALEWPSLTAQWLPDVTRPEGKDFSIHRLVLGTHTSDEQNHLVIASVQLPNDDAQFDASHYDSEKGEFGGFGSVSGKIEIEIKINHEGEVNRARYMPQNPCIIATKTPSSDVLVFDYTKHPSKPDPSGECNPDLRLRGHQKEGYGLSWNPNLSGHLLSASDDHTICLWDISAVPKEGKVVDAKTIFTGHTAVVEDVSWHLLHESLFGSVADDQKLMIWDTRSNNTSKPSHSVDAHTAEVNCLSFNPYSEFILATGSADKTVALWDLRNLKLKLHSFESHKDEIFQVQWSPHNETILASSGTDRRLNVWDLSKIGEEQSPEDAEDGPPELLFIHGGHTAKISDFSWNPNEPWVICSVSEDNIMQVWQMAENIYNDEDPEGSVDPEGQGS

H3K27me3 = details: cited from earlier work
PC9 xenografts = test: PC9 xenograft tumor study; format: in vivo; details: nude mice
Description: FIG. 18 | Effect of HDAC Inhibition using TSA (0.5 mg/kg) on erlotinib response in PC9 xenografts.
PC9 cells were cultured in growth media (RPMI 1640, 10% heat-inactivated fetal calf serum, 2 mM L-glutamine) to 80% confluency and then trypsinized, washed once with PBS, and resuspended in either Hank's Balanced Salt Solution (HBSS) or a 1:1 mixture of HBSS with matrigel [growth factor reduced; catalog #356231 (BD Biosciences, West Grove, Pa.)] to a final concentration of 5×10^7 cells/ml. Each xenograft tumor model was established using 5×10^6 cells (100 μL) inoculated subcutaneously (s.c.) in the rear right flank of immunocompromised mice. PC-9 and PC-9-GFP cells were implanted in HBSS with matrigel in nude (nu/nu) mice (Charles River Laboratories, Hollister, Calif.). When tumor volumes reach approximately 100-200 mm^3, mice were separated into groups of animals with similarly sized tumors, and treatment was initiated the day after grouping. Mice were dosed for 5 days a week (QD) oral gavage (PO) with erlotinib (50 mg/kg in 7.5% Captisol for first 4 doses then lowered to 35 mg/kg in 7.5% Captisol) and/or TSA (0.5 mg/kg) with appropriate vehicle control. […]

SKBR3 cells = test: TSA on SKBR3 drug tolerant cells (radiotherapy or lapatinib); format: cell-based; details: SKBR3, 2.5 Gy and 10 Gy, 25 nM TSA
Description: FIG. 16A, FIG. 16B and FIG. 16C | DTPs in a variety of models display increased sensitivity to HDAC inhibitors. (A) SKBR3 treated with 2.5 Gy in media alone or presence of 25 nM of the HDAC inhibitor TSA. (B) SKBR3 treated with 10 Gy in media alone or presence of 25 nM of the HDAC inhibitor TSA. (C) SKBR3 treated with 1 μM Lapatinib in media alone or presence of 25 nM of the HDAC inhibitor TSA.
The role of histone deacetylases was further test in additional models to elucidate their role in drug tolerance. The class I and II HDAC inhibitor TSA was tested in SKBR3 cells in combination with radiotherapy at 2.5 Gy and 10 Gy.

PC9 cells = test: DZNep cell treatment, PC9 parental/DTP cell viability (CyQUANT Direct); format: cell-based, human
Description: DZNep was tested at concentrations ranging from 0.625 to 40 μM (A). PC9 cells were treated for 48 hours either with DZNep (DZNep/Media or DZNep/erlotinib) or DMSO control (DMSO/Media or DMSO/erlotinib) before treatment with (DTP) (DMSO/erlotinib or DZNep/erlotinib) or without erlotinib (parental)(DMSO/Media or DZNep/Media) for 72 hours. Cell number was determined after a 48-72 hours recovery phase in media alone. Effect of DZNep at 5 (B) and 0.625 μM (C) on PC9 parental (solid gray bars: media conditions) or DTP (diamond bars: erlotinib condition) cell number.
PC9 cells were seeded in black 96 well clear bottom plates (Coming, catalog #3603) at 1000 cells per well before to be treated with various concentration of 3-deazaneplanocin A (DZNep) from 40 down to 0.625 μM. After 48 hours of DZNep treatment the media was replaced with fresh media alone or in presence of 1 μM erlotinib. After 72 hours of incubation the media +/− erlotinib was then replaced with fresh media to enable recovery of the drug tolerant persisters (DTPs) that survived after the drug treatment. After 3 days recovery phase, final cell viability was measured using CyQUANT Direct cell proliferation assay (Molecular Probes) according to the manufacturer protocol. CyQUANT fluorescent signal was detected using a GE IN Cell Analyzer 2000 (4× objective) and quantified as number of cell per well using an image analysis algorithm developed using GE Developer Tollbox 1.9.1. Screening data were subsequently processed in Microsoft Excel. The entire Epi300 siRNA screen was run on each cell line twice in completely independent conditions.

[3] = system: EZH2 levels and trimethylation of lysine 27 on histone H3; details: cultured human acute myeloid leukemia, dose-dependent manner (0.2-1 μM); cited from earlier work

SMILES: CC[C@H](C)n1cc(C)c2c(C(=O)NCc3c(C)cc(C)[nH]c3=O)cc(-c3ccc(N4CCNCC4)nc3)cc21 [GSK126, (S)-1-(sec-butyl)-N-((4,6-dimethyl-2-oxo-1,2-dihydropyridin-3-yl)methyl)-3-methyl-6-(6-(piperazin-1-yl)pyridin-3-yl)-1H-indole-4-carboxamide]
- histone H3K27me3 (H3K27 trimethylation) in PC9 DTPs treated with erlotinib (H3K27me3 in PC9 DTPs): effective in reducing H3K27 trimethylation; also recorded: inhibited
- histone H3K27me3 (H3K27 trimethylation) in EVSAT DTPs treated with GDC-0908 (H3K27me3 in EVSAT DTPs): effective in reducing H3K27 trimethylation; also recorded: inhibited
- cell growth of PC9 DTP with erlotinib (PC9 DTP [1]): effective in reducing cell growth in a dose dependent manner
- cell growth of EVSAT DTP with PI3 kinase inhibitor (EVSAT DTP): effective in reducing cell growth in a dose dependent manner

SMILES: CC(=O)Nc1ccc(C(=O)Nc2cc(-c3cccs3)ccc2N)cc1 [Compound G946]
- cell growth of PC9 DTP with erlotinib (PC9 DTP [2]): effective in reducing cell growth

SMILES: Cc1ccc(C(=O)NCCCCCC(=O)Nc2ccc(F)cc2N)cc1 [Compound G877]
- cell growth of PC9 DTP with erlotinib (PC9 DTP [2]): effective in reducing cell growth

SMILES: Cc1cc(C)c(CNC(=O)c2cc(-c3ccnc(N4CCN(C)CC4)c3)cc3c2cnn3C(C)C)c(=O)[nH]1 [Compound 5]
- Ki (EZH2): 0.014 ± 0.005 µM
- IC50 (H3K27me3): 2 µM

SMILES: CCN(c1cc(-c2ccc(CN3CCOCC3)cc2)cc(C(=O)NCc2c(C)cc(C)[nH]c2=O)c1C)C1CCOCC1 [EPZ-6438, N-((4,6-dimethyl-2-oxo-1,2-dihydropyridin-3-yl)methyl)-5-(ethyl(tetrahydro-2H-pyran-4-yl)amino)-4-methyl-4′-(morpholinomethyl)-[1,1′-biphenyl]-3-carboxamide]
- histone H3K27me3 (H3K27 trimethylation) in PC9 DTPs treated with erlotinib (H3K27me3 in PC9 DTPs): effective in reducing H3K27 trimethylation; also recorded: inhibited
- histone H3K27me3 (H3K27 trimethylation) in EVSAT DTPs treated with GDC-0908 (H3K27me3 in EVSAT DTPs): effective in reducing H3K27 trimethylation; also recorded: inhibited

SMILES: CC(/C=C/C(=O)NO)=C\[C@@H](C)C(=O)c1ccc(N(C)C)cc1 [TSA, Trichostatin A]
- tumor growth, TSA alone (PC9 xenografts; TSA 0.5 mg/kg): no effect
- tumor relapse, combination of erlotinib+TSA (PC9 xenografts; TSA 0.5 mg/kg with erlotinib 50 then 35 mg/kg PO): substantial delay in tumor relapse
- effect on radiotherapy drug tolerant cells (SKBR3 cells): significant effect and eliminated radiotherapy drug tolerant cells

SMILES: CCCc1cc(C)[nH]c(=O)c1CNC(=O)c1cc(-c2ccc(N3CCN(C)CC3)nc2)cc2c1cnn2C(C)C [Compound 4]
- Ki (EZH2): 0.0006 ± 5e-05 µM
- IC50 (H3K27me3): 0.079 ± 0.007 µM

SMILES: Nc1nccc2c1ncn2[C@@H]1C=C(CO)[C@@H](O)[C@H]1O [DZNep, 3-deazaneplanocin A]
- cell killing compared to erlotinib alone (PC9 cells; DZNep 0.625 uM with 1 μM erlotinib): 75.8%
- cell killing compared to erlotinib alone (PC9 cells; DZNep 5 uM with 1 μM erlotinib): 87.5%
- effect by itself on PC9 DTP cell viability (PC9 cells; DZNep 0.625 and 5 uM, without erlotinib): not effect
- cell viability in media alone (PC9 cells; DZNep 0.625 to 10 uM, media alone): minimum impact
- PC9 DTP cell viability in combination with erlotinib (PC9 cells; DZNep concentrations as low as 0.625 uM, 1 μM erlotinib): very significantly decrease
- EZH2 levels and trimethylation of lysine 27 on histone H3 [3]: deplete EZH2 levels and to inhibit trimethylation of lysine 27 on histone H3

SMILES: Cc1cc(C)c(CNC(=O)c2cc(C3CC3)cc3c2cnn3C(C)C)c(=O)[nH]1 [Compound 2]
- Ki (EZH2): 0.074 ± 0.011 µM
- IC50 (H3K27me3): 2.51 µM

SMILES: CCCc1cc(C)[nH]c(=O)c1CNC(=O)c1cc(-c2ccnc(N3CCN(C)CC3)c2)cc2c1cnn2C(C)C [Compound 6]
- IC50 (H3K27me3): 0.174 ± 0.084 µM
